# Reference: patent publication US20220125837A1, “METHODS FOR CONTROLLED ELIMINATION OF THERAPEUTIC CELLS” (Bellicum Pharmaceuticals, Inc., priority 2014, published 2022)
# Key:
# [1] = tested on: iCasp9-ΔCD19-transduced MSCs; test: In vivo killing of iCasp9 MSCs in SCID mice (luminescence, qPCR)
# Method: All mouse experiments were performed in accordance with the Baylor College of Medicine animal husbandry guidelines. To assess the persistence of modified MSCs in vivo, a SCID mouse model was used in conjunction with an in vivo imaging system. MSCs were transduced with retroviruses coding for the enhanced green fluorescent protein-firefly luciferase (eGFP-FFLuc) gene alone or together with the iCasp9-ΔCD19 gene. Cells were sorted for eGFP positivity by fluorescence activated cell sorting using a MoFlo flow cytometer (Beckman Coulter, Fullerton, Calif.). Doubly transduced cells were also stained with PE-conjugated anti-CD19 and sorted for PE-positivity. SCID mice (8-10 weeks old) were injected subcutaneously with 5×10^5 MSCs with and without iCasp9-ΔCD19 in opposite flanks. […] For in vivo imaging of MSCs expressing eGFP-FFLuc, mice were injected intraperitoneally with D-luciferin (150 mg/kg) and analyzed using the Xenogen-IVIS Imaging System. Total luminescence (a measurement proportional to the total labeled MSCs deposited) at each time point was calculated by automatically defining regions-of-interest (ROIs) over the MSC implantation sites. These ROIs included all areas with luminescence signals at least 5% above background. Total photon counts were integrated for each ROI and an average value calculated. […]
# iFas-transduced CTLs = test: CID-induced elimination of GFP+ iFas-transduced EBV-CTLs; type: cell-based, human; conditions: GFPhigh, 1:1 with nontransduced, 10 nM CID, day 7
# Text: Caspase-9 was selected as an inducible proapoptotic molecule for clinical use rather than previously presented iFas and iFADD, because Caspase-9 acts relatively late in apoptosis signaling and therefore is expected to be less susceptible to inhibition by apoptosis inhibitors. Thus, suicide function should be preserved not only in malignant, transformed T-cell lines that express antiapoptotic molecules, but also in subpopulations of normal T cells that express elevated antiapoptotic molecules as part of the process to ensure long-term preservation of memory cells. To further investigate the hypothesis, the function of iCasp9M and iFas was first compared in EBV-CTLs. To eliminate any potential vector based difference, inducible Fas also was expressed in the MSCV.IRES.GFP vector, like iCasp9. […]
# Elimination of GFP^+ cells after administration of 10 nM CID was more rapid and more efficient in iCasp9M than in iFas-transduced CTLs (99.2%+/−0.14% of iCasp9M-transduced cells compared with 89.3%+/−4.9% of iFas-transduced cells at day 7 after CID; P<0.05). On the day of LCL stimulation, 10 nM CID was administered, and GFP was measured at the time points indicated to determine the response to CID. […]
# [2] = tested on: gene-modified allodepleted cells (SFG.iCasp9.2A.CD19); test: Induction of apoptosis with AP20187 in gene-modified allodepleted cells (annexin V/7-AAD); type: cell-based, human
# Method: Suicide gene functionality was assessed by adding a small molecule synthetic homodimerizer, AP20187 (Ariad Pharmaceuticals; Cambridge, Mass.), at 10 nM final concentration the day following CD19 immunomagnetic selection. Cells were stained with annexin V and 7-amino-actinomycin (7-AAD)(BD Pharmingen) at 24 hours and analyzed by flow cytometry. Cells negative for both annexin V and 7-AAD were considered viable, cells that were annexin V positive were apoptotic, and cells that were both annexin V and 7-AAD positive were necrotic. The percentage killing induced by dimerization was corrected for baseline viability as follows: Percentage killing=100%−(% Viability in AP20187-treated cells÷% Viability in non-treated cells).
# The day following immunomagnetic selection, 10 nM of the chemical inducer of dimerization, AP20187, was added to induce apoptosis, which appeared within 24 hours.
# [3] = large-scale CD19 selection (n=3)
smiles,measurement,setting,value
CC[C@H](C(=O)N1CCCC[C@H]1C(=O)O[C@H](CCc1ccc(OC)c(OC)c1)c1cccc(OCC(=O)NCC(CNC(=O)COc2cccc([C@@H](CCc3ccc(OC)c(OC)c3)OC(=O)[C@@H]3CCCCN3C(=O)[C@@H](CC)c3cc(OC)c(OC)c(OC)c3)c2)CN(C)C)c1)c1cc(OC)c(OC)c(OC)c1 [AP20187],"surviving iCasp9-positive cells, % of the original population",[1]; after one week,0.7%
same,killing / depletion of iCasp9-positive cells in vivo,"[1]; two injections of 50 μg of CID 24 hours apart, qPCR",> 99%
same,Elimination of GFP+ cells,iFas-transduced CTLs,89.3%+/−4.9%
same,Killing efficiency after correction for baseline viability,"[2]; 10 nM, 24 hours",about 92.9%±3.8%
same,AP20187-treated cells remaining viable,"[2]; 10 nM, 24 hours, day following CD19 selection",about 5.5%±2.5%
same,apoptosis after treatment with dimerizer,[2]; iCasp9 donor T cells,> 90%
same,mean viability with AP20187,[2]; [3],about 3.9%
same,percentage killing,[2]; [3],about 95.4%
same,mean viability with AP20187,[2]; small-scale selection (n=5),about 6.6%
same,percentage killing,[2]; small-scale selection (n=5),about 91.4%
